Source: patent publication US5132402A, “Adsorbent, method for production thereof, and method for use thereof” (Agency of Industrial Science and Technology, priority 1987, dated 1992)
Where a SMILES comes first, the peptide text is derived from it. Bridges are numbered along the chain shown (N, C = ends).

Experiment: Solubility of the peptide in the phosphate buffer solution used for immobilization
Format: physicochemical
Details: phosphate buffer solution (0.02 mol/liter) of pH 7.4
Method: (a) The immobilization procedure of Example 2(a) was repeated, except that 20 mg of the peptide obtained in Synthesizing Example 18 was used in place of 20 mg of the peptide obtained in Synthesizing Example 2.

solubility in the phosphate buffer solution: low solubility
SMILES: CC(C)C[C@H](NC(=O)[C@H](Cc1ccc(O)cc1)NC(=O)[C@@H]1CCCN1C(=O)[C@@H](NC(=O)[C@H](CC(=O)O)NC(=O)[C@@H]1CCCN1C(=O)[C@@H]1CSSC[C@H](NC(=O)[C@@H](NC(=O)[C@H](Cc2ccc(O)cc2)NC(=O)[C@H](Cc2ccc(O)cc2)NC(=O)[C@@H](NC(=O)[C@H](Cc2c[nH]c3ccccc23)NC(=O)[C@H](Cc2c[nH]cn2)NC(=O)[C@H](CCCCN)NC(=O)[C@H](Cc2c[nH]c3ccccc23)NC(=O)CNC(=O)[C@H](CC(C)C)NC(=O)[C@@H](N)CC(C)C)C(C)C)[C@@H](C)O)C(=O)N1)[C@@H](C)O)C(=O)N[C@@H](CC(=O)O)C(=O)O [Synthesizing Example 18] (H-LLGWKHWVYYTCCPDTPYLD-OH; disulfide 12-13)
